Experiments:
[1] = test system: C57Black/6 mice; assay: Prophylactic neuroprotection, cerebral ischemia-reperfusion model (middle cerebral artery occlusion); format: in vivo, mouse; conditions: gavage 200 mg/kg/day for 14 days before occlusion; 60 minutes occlusion, 24 hours reperfusion; untreated 37
Method: C57 black/6 mice (wild-type) were used for this experiment. Animals were maintained on a 12 hour light-dark cycle at a temperature of 20° C.±3° C. Water and food were available ad libitum. Food intake and weight gain were recorded all along the experiment. The inventive compounds (200 mg/kg/day) or the vehicle (0.5% carboxycellulose (CMC)) were administered to the animals by gavage, for 14 days before ischemia induction in the middle cerebral artery.
Animals were anesthetized by intraperitoneal injection of 300 mg/kg chloral hydrate. A rectal probe was inserted and body temperature was maintained at 37° C.±0.5° C. Blood pressure was monitored throughout the experiment. Under a surgical microscope, the right carotid artery was exposed by a median incision in the neck. […]
(§1) Twenty-four hours after reperfusion, animals previously treated or not with the compounds were euthanized by pentobarbital overdose. […] Areas were measured and the volume of the infarct and the two hemispheres was calculated by the following formula: (corrected infarct volume=infarct volume−(volume of right hemisphere−volume of left hemisphere)) to compensate for cerebral oedema. […]

[2] = test system: C57 black/6 mice; assay: Acute neuroprotection, cerebral ischemia-reperfusion model (middle cerebral artery occlusion); format: in vivo, mouse; conditions: 200 mg/kg/day for 72 hours after occlusion; untreated 41
Method: Animals such as those described previously were used for this experiment. Animals were anesthetized by intraperitoneal injection of 300 mg/kg chloral hydrate. A rectal probe was inserted and body temperature was maintained at 37° C.±0.5° C. Blood pressure was monitored throughout the experiment. Under a surgical microscope, the right carotid artery was exposed by a median incision in the neck. The pterygopalatine artery was ligated at its origin and an arteriotomy was fashioned in the external carotid artery so as to insert a nylon monofilament, which was gently advanced to the common carotid artery and then into the internal carotid artery so as to occlude the origin of the middle cerebral artery. The filament was withdrawn one hour later to allow reperfusion.
Animals first subjected to ischemia-reperfusion were treated with the inventive compounds by the oral or systemic route one or more times after reperfusion.
as §1, with “Seventy-two” for “Twenty-four”, “overdose. Brains were rapidly frozen and sliced. Sections were stained with cresyl violet.” for “overdose.”

SMILES: Cc1cc(/C=C/C(=O)c2ccc(Cl)cc2)cc(C)c1OC(C)(C)C(=O)OC(C)C [Compound 15, 1-[4-chlorophenyl]-3-[3,5-dimethyl-4-isopropyloxycarbonyldimethylmethyloxyphenyl]prop-2-en-1-one]
- infarct volume [1]: 32 mm^3
- total corrected infarct volume [2]: 29 mm^3

SMILES: CC(C)OC(=O)C(C)(C)Oc1ccc(/C=C/C(=O)c2ccccc2O)cc1 [Compound 42]
- infarct volume [1]: 24 mm^3
- total corrected infarct volume [2]: 29 mm^3
